Assay results taken from patent publication US8968453B2, “Anthrapyridone sulfonic acid compounds and their preparation methods and applications” (Zhuhai Ninestar Management Co., Ltd., priority 2011, dated 2015).

How the values were obtained:
Type in all cases: physicochemical
[1] = Printed images light resistance test with xenon lamp; conditions: grade of color difference ΔE; ink with 6 portions dye on glossy photo paper; xenon lamp 0.36 W/m^2, 50 h, 60% RH, 24° C.
Excerpt: (§1) Prepare the ink composition of Table 8 with the product obtained in Embodiment 1-11 as the coloring agent, and filter the ink composition with 0.45 μm membrane filter to obtain the magenta ink composition of the present invention. Add ion exchange water and triethanolamine to adjust the pH value of the ink composition to 8-10 and the weight to 100 portions. By the same methods, prepare ink compositions with control sulfonic-group-free anthrone dyes Dye1 and Dye2, hydrolytic derivatives of commercial dye C.I. reactive red 180 (reactive red 180 for short) and C.I. direct red 227 for comparison.
(§2) Use an ink-jet printer (Epson 270 manufactured by Epson Company), glossy photo paper (Epson) and the above described ink compositions for ink-jet printing.
(1) Printed Images Light Resistance Test with Xenon Lamp
Irradiate the printed glossy photo paper manufactured by Canon and Epson with Xenon-lamp Weathering Test Chamber ZG-P (manufactured by China Surui Company) at 60% RH and 24° C. with illuminance of 0.36 W/m^2 for 50 h to test the color difference (ΔE) before and after the test. The color difference (ΔE) is calculated from the differences of values of L*, a*, b* before and after the test in the above described color measurement system (Unterlab) by the followings formula: ΔE=((difference of L*)^2+(difference of a*)^2+(difference of b*)^2)^1/2.
Three grades will be divided for the evaluation based on the following benchmark: • ΔE<10 ∘ • ΔE<20 Δ • ΔE>20 x

[2] = Gas (ozone) resistance of the printed images; conditions: grade of color difference ΔE; ink with 6 portions dye on glossy photo paper; 40 ppm ozone, 60% RH, 24° C.
Excerpt: Prepare the ink composition of Table 8 with the product obtained in Embodiment 1-11 as the coloring agent, and filter the ink composition with 0.45 μm membrane filter to obtain the magenta ink composition of the present invention. Add ion exchange water and triethanolamine to adjust the pH value of the ink composition to 8-10 and the weight to 100 portions. By the same methods, prepare ink compositions with control sulfonic-group-free anthrone dyes Dye1 and Dye2, hydrolytic derivatives of commercial dye C.I. reactive red 180 (reactive red 180 for short) and C.I. direct red 227 for comparison. Use an ink-jet printer (Epson 270 manufactured by Epson Company), glossy photo paper (Epson) and the above described ink compositions for ink-jet printing. (2) Gas Resistance of the Printed Images Place the printed images in the Ozone Weathering Test Chamber (manufactured by China Surui Company) at 60% RH, 24° C. and 40 ppm ozone. Calculated the color difference (ΔE) before and after the test by the same method as described in (1) above and evaluate it in 3 grades based on the following benchmark: • ΔE<10 ∘ • ΔE<20 Δ • ΔE>20 x

[3] = Wet resistance of the printed images; set-up: key: No bleeding ∘; Slight bleeding Δ; Notable bleeding x; conditions: bleeding judged by bare eyes; 50° C., 90% RH, 168 h
Excerpt: as §1, §2
(3) Wet Resistance of the Printed Images
Place the printed images in the Constant Temperature and Humidity Chamber (manufactured by China Surui Company) at 50° C. and 90% RH for 168 h; judge the bleeding of the ink by bare eyes before and after the test and evaluate it in 3 grades based on the following benchmark: • No bleeding ∘ • Slight bleeding Δ • Notable bleeding x

[4] = Evaluation of solubility and solution stability; set-up: key: No precipitation ∘; Slight precipitation Δ; Notable x; conditions: 20 portions dye, 70 portions water, 10 portions ethylene glycol; 50° C. 7 d, then 0° C. 7 d; precipitation on filtering
Method: (D) Evaluation of Solubility and Solution Stability
Heat and dissolve the system of 20 portions of dyes, 70 portions of water and 10 portions of ethylene glycol; after the solution cools down, store it airtight at a constant temperature of 50° C. for 7 d; cool it down and store it at 0° C. for 7 d; filter the solution and evaluate it in 3 grades based on the following benchmark: • No precipitation ∘ • Slight precipitation Δ • Notable x

SMILES	UV resistance of printed images [1]	Ozone resistance of printed images [2]	Water resistance of printed images [3]	Solubility and stability of dyes in aqueous solvent system [4]
CC(=O)Nc1cc(Nc2ccc3[nH]c(=O)c(C(=O)c4cccc(S(=O)(=O)O)c4)c4c3c2C(=O)c2ccccc2-4)c(S(=O)(=O)O)cc1S(=O)(=O)O [Dye2, reference compound]	Δ (ΔE<20 Δ)	Δ (ΔE<20 Δ)	∘	Δ
CCN(CC)CCS(=O)(=O)c1ccc(S(=O)(=O)O)c(Nc2cc(S(=O)(=O)O)c3[nH]c(=O)c(C(=O)c4cccc(S(=O)(=O)O)c4)c4c3c2C(=O)c2ccccc2-4)c1 [Dye B2]	∘ (ΔE<10 ∘)	∘ (ΔE<10 ∘)	∘	∘
CCN(CC)CCS(=O)(=O)c1ccc(S(=O)(=O)O)c(Nc2ccc3[nH]c(=O)c(C(=O)c4cccc(S(=O)(=O)O)c4)c4c3c2C(=O)c2ccccc2-4)c1 [Dye1, reference compound]	Δ (ΔE<20 Δ)	Δ (ΔE<20 Δ)	∘	Δ
CCN(CC)CCS(=O)(=O)c1cc(Nc2cc(S(=O)(=O)O)c3[nH]c(=O)c(C(=O)c4cccc(S(=O)(=O)O)c4)c4c3c2C(=O)c2ccccc2-4)c(S(=O)(=O)O)cc1S(=O)(=O)O [Dye B4]	∘ (ΔE<10 ∘)	∘ (ΔE<10 ∘)	∘	∘
O=C(c1cccc(S(=O)(=O)O)c1)c1c2c3c(c(Nc4cc(S(=O)(=O)CCSCCCS(=O)(=O)O)ccc4S(=O)(=O)O)cc(S(=O)(=O)O)c3[nH]c1=O)C(=O)c1ccccc1-2 [Dye B1]	∘ (ΔE<10 ∘)	∘ (ΔE<10 ∘)	∘	∘
O=S(=O)([O-])c1cc(Nc2nc(Nc3ccc(/C=C/c4ccc(Nc5nc(Nc6cc(S(=O)(=O)[O-])cc7cc(S(=O)(=O)[O-])c(N=Nc8ccccc8)c(O)c67)nc(N6CCOCC6)n5)cc4S(=O)(=O)[O-])c(S(=O)(=O)[O-])c3)nc(N3CCOCC3)n2)c2c(O)c(N=Nc3ccccc3)c(S(=O)(=O)[O-])cc2c1.[Na+].[Na+].[Na+].[Na+].[Na+].[Na+] [C.I. direct red 227, reference compound]	x (ΔE>20 x)	x (ΔE>20 x)	Δ	Δ
O=C(c1cccc(S(=O)(=O)O)c1)c1c2c3c(c(Nc4cc(S(=O)(=O)CCSCCCS(=O)(=O)O)c(S(=O)(=O)O)cc4S(=O)(=O)O)cc(S(=O)(=O)O)c3[nH]c1=O)C(=O)c1ccccc1-2 [Dye B3]	∘ (ΔE<10 ∘)	∘ (ΔE<10 ∘)	∘	∘

Now from value to molecule:

UV resistance of printed images [1]	Ozone resistance of printed images [2]	Water resistance of printed images [3]	Solubility and stability of dyes in aqueous solvent system [4]	SMILES
∘ (ΔE<10 ∘)	Δ (ΔE<20 Δ)	∘	∘	CN(c1nc(Oc2cc(C(=O)O)cc(C(=O)O)c2)nc(N(CCO)CCO)n1)c1cc(S(=O)(=O)O)c(Nc2cc(S(=O)(=O)O)c3[nH]c(=O)c(C(=O)c4cccc(S(=O)(=O)O)c4)c4c3c2C(=O)c2ccccc2-4)cc1S(=O)(=O)O [Dye D3]
∘ (ΔE<10 ∘)	∘ (ΔE<10 ∘)	∘	∘	CC(=O)Nc1cc(Nc2cc(S(=O)(=O)O)c3[nH]c(=O)c(C(=O)c4cccc(S(=O)(=O)O)c4)c4c3c2C(=O)c2ccccc2-4)c(S(=O)(=O)O)cc1S(=O)(=O)O [Dye C5]
∘ (ΔE<10 ∘)	∘ (ΔE<10 ∘)	∘	∘	O=C(c1cccc(S(=O)(=O)O)c1)c1c2c3c(c(Nc4ccc(S(=O)(=O)O)cc4S(=O)(=O)O)cc(S(=O)(=O)O)c3[nH]c1=O)C(=O)c1ccccc1-2 [Dye C1]
∘ (ΔE<10 ∘)	∘ (ΔE<10 ∘)	∘	∘	O=C(O)c1cc(Oc2nc(Nc3cc(Nc4cc(S(=O)(=O)O)c5[nH]c(=O)c(C(=O)c6cccc(S(=O)(=O)O)c6)c6c5c4C(=O)c4ccccc4-6)c(S(=O)(=O)O)cc3S(=O)(=O)O)nc(Oc3cc(C(=O)O)cc(C(=O)O)c3)n2)cc(C(=O)O)c1 [Dye D1]
∘ (ΔE<10 ∘)	Δ (ΔE<20 Δ)	∘	Δ	Cc1ccc(S(=O)(=O)Nc2cc(Nc3cc(S(=O)(=O)O)c4[nH]c(=O)c(C(=O)c5cccc(S(=O)(=O)O)c5)c5c4c3C(=O)c3ccccc3-5)c(S(=O)(=O)O)cc2S(=O)(=O)O)cc1 [Dye D4]
∘ (ΔE<10 ∘)	∘ (ΔE<10 ∘)	∘	∘	O=C(O)c1cc(Oc2nc(Nc3cc(Nc4cc(S(=O)(=O)O)c5[nH]c(=O)c(C(=O)c6cccc(S(=O)(=O)O)c6)c6c5c4C(=O)c4ccccc4-6)c(S(=O)(=O)O)cc3S(=O)(=O)O)nc(N(CCO)CCO)n2)cc(C(=O)O)c1 [Dye D2]
